Assay results as given in US20210047693A1, “METHODS OF TREATING EXTRACHROMOSOMAL DNA EXPRESSING CANCERS” (THE REGENTS OF THE UNIVERSITY OF CALIFORNIA, priority 2017, published 2021).

Experiments:
Type in all cases: cell-based
GBM cells [1] = test: Glucose levels in cells
ecDNA = test: Replication stress on ecDNA versus chromosomal DNA; conditions: vehicle versus erlotinib; ecDNA vs chromosomal DNA
GBM39 cells = test: Exosomal export of oncogenes amplified on ecDNA (FISH probe and PCR analysis of purified exosomes); conditions: exosomes purified from treated GBM39 cells
GBM cells [2] = test: Loss of EGFR-containing ecDNA / EGFR oncogene DNA (number of ecDNAs per metaphase)
[3] = tested on: isogenic paired COLO320 cells; test: 3D soft agar assay; conditions: COLO320 isogenic pair (colon cancer cell line)
Text: (§1) FIGS. 13A-13B. […] FIG. 13A) 3D soft agar assay in isogenic paired GBM39 cells treated with Olaparib or Rucaparib. Quantification of colonies as measured by ColonyArea software (bottom). FIG. 13B) 3D soft agar assay in isogenic paired COLO320 cells (a colon cancer cell line) treated with Olaparib or Rucaparib. Quantification of colonies as measured by ColonyArea software (bottom).

[4] = tested on: isogenic paired GBM39 cells; test: 3D soft agar assay; conditions: GBM39 isogenic pair
Text: as §1

PC3 cells = test: 2D colony formation assay with crystal violet staining; conditions: PC3 cells compared with immortalized HEK293 cells
Experimental: FIGS. 12A-12C. […] FIG. 12A) Acute cell toxicity following 4 days treatment with 10 μM of indicated PARPi. Cell death measured by FACS analysis of Sytox Red staining in 2 normal cell types (astrocytes and HEK293), PC3 ecDNA-containing cells, and the paired GBM39 cells. FIG. 12B) 2D colony formation assay and crystal violet staining in immortalized HEK293 cells and PC3 cells after treatment with Olaparib or Rucaparib. FIG. 12C) Colony number quantification by Colony Area software plug-in for ImageJ from data in (FIG. 12B).

Compound: C#Cc1cccc(Nc2ncnc3cc(OCCOC)c(OCCOC)cc23)c1 [erlotinib]
- glucose levels in GBM cells (GBM cells [1]): lowers glucose levels in GBM cells
- replication stress on ecDNA (frequency of pRPA(533) positive metaphase) (ecDNA): specifically causes replication stress on ecDNA, but not on chromosomal DNA
- cellular level of oncogenes amplified on ecDNA, via exosomal export (GBM39 cells): reduction of cellular level of oncogenes amplified on ecDNA
- loss of ecDNA containing amplified EGFRvIII (number of ecDNAs per metaphase) (GBM cells [2]): causes the loss of ecDNA containing amplified EGFRvIII

Compound: CNCc1ccc(-c2[nH]c3cc(F)cc4c3c2CCNC4=O)cc1 [Rucaparib, rucaparib]
- 3D soft agar colonies [3]: sensitive to PARP inhibition
- 3D soft agar colonies [4]: sensitive to PARP inhibition
- 2D colony formation (colony number) (PC3 cells): sensitive to PARP inhibition

Compound: O=C(c1cc(Cc2n[nH]c(=O)c3ccccc23)ccc1F)N1CCN(C(=O)C2CC2)CC1 [Olaparib, olaparib]
- 3D soft agar colonies [3]: sensitive to PARP inhibition
- 3D soft agar colonies [4]: sensitive to PARP inhibition
- 2D colony formation (colony number) (PC3 cells): sensitive to PARP inhibition
